Test results taken from ChEMBL document CHEMBL4196246, “Preussins with Inhibition of IL-6 Expression from Aspergillus flocculosus 16D-1, a Fungus Isolated from the Marine Sponge Phakellia fusca” (J Nat Prod, 2018).

Legend:
[1] = test system: THP-1; experiment: Immunosuppressive activity in PMA-differentiated human THP1 cells assessed as inhibition of LPS-stimulated IL-6 production by flow cytometry; format: functional, cell-based
[2] = test system: Candida albicans; experiment: Antifungal activity against Monilia albicans ATCC 10231 measured after 24 hrs by broth macrodilution method; format: functional; conditions: ATCC 10231, 24 h
[3] = test system: Trichophyton mentagrophytes; experiment: Antifungal activity against Trichophyton mentagrophytes ATCC 4439 by broth macrodilution method; format: functional
[4] = test system: Trichophyton rubrum; experiment: Antifungal activity against Trichophyton rubrum ATCC 4438 measured after 4 to 7 days by broth macrodilution method; format: functional
[5] = test system: THP-1; experiment: Cytotoxicity against human THP1 cells after 72 hrs by CCK8 assay; format: functional, cell-based; conditions: THP-1, 72 h
[6] = test system: A549; experiment: Cytotoxicity against human A549 cells after 72 hrs by CCK8 assay; format: functional, cell-based; conditions: A549, 72 h
[7] = test system: HepG2; experiment: Cytotoxicity against human HepG2 cells after 72 hrs by CCK8 assay; format: functional, cell-based; conditions: HepG2, 72 h

Structure (SMILES)	IC50 [1] [µM]	MIC [2] [µg/mL]	MIC [3] [µg/mL]	MIC [4] [µg/mL]	IC50 [5] [µM]	IC50 [6] [µM]	IC50 [7] [µM]
CN1[C@H](CCCCCC(=O)O)C[C@H](O)[C@@H]1Cc1ccccc1	8.2	> 50	> 50	> 50	> 20	> 20	> 20
CN1[C@H](CCCCCCC(=O)O)C[C@H](O)[C@@H]1Cc1ccccc1	9.9	> 50	> 50	> 50	> 20	> 20	> 20
CC(C)=CCC/C(C)=C/Cc1cc(-c2coc3cc(O)ccc3c2=O)ccc1O	0.67	–	–	–	–	–	–
CN1[C@H](CCC(=O)O)C[C@H](O)[C@@H]1Cc1ccccc1	21	> 50	> 50	> 50	> 20	> 20	> 20
CN1[C@H](CCCCC(=O)O)C[C@H](O)[C@@H]1Cc1ccccc1	22	> 50	> 50	> 50	> 20	> 20	> 20
CC[C@@H](O)CCCCCC[C@@H]1C[C@H](O)[C@H](Cc2ccccc2)N1C	0.19	> 50	> 50	> 50	> 20	> 20	> 20
C[C@@H](O)CCCCCCC[C@@H]1C[C@H](O)[C@H](Cc2ccccc2)N1C	14	> 50	> 50	> 50	> 20	> 20	> 20
CN1[C@H](CCCCCCCCC(=O)O)C[C@H](O)[C@@H]1Cc1ccccc1	0.11	> 50	> 50	> 50	> 20	> 20	> 20
CCCC(O)CCCCC[C@@H]1C[C@H](O)[C@H](Cc2ccccc2)N1C (mixture of isomers)	16	> 50	> 50	> 50	> 20	> 20	> 20
CC(O)CCCCC[C@@H]1C[C@H](O)[C@H](Cc2ccccc2)N1C (mixture of isomers)	2.3	> 50	> 50	> 50	> 20	> 20	> 20
